# Reference: US20250129078A1, “ERBB2 INHIBITORS” (Cogent Biosciences, Inc., priority 2023, published 2025)
# What was measured:
# [1] = target: ErbB2 V777L (Homo sapiens (Human), UniProt P04626, V777L); assay: ErbB enzyme assay (CisBio HTRF-KinEASE-TK), ErbB2 V777L; assay type: biochemical
# How it was run: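 HTRF KinEASE-TK tyrosine-kinase read-out of substrate phosphorylation after a final 1 h at ambient temperature, from the 655/620 nm emission ratio.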
# [2] = target: EGFR WT (Homo sapiens (Human), UniProt P00533); assay: ErbB enzyme assay (CisBio HTRF-KinEASE-TK), EGFR WT; assay type: biochemical; settings: ATP at Km (25 μM), 1 h incubation
# Chain of EGFR WT (P00533 25-1210): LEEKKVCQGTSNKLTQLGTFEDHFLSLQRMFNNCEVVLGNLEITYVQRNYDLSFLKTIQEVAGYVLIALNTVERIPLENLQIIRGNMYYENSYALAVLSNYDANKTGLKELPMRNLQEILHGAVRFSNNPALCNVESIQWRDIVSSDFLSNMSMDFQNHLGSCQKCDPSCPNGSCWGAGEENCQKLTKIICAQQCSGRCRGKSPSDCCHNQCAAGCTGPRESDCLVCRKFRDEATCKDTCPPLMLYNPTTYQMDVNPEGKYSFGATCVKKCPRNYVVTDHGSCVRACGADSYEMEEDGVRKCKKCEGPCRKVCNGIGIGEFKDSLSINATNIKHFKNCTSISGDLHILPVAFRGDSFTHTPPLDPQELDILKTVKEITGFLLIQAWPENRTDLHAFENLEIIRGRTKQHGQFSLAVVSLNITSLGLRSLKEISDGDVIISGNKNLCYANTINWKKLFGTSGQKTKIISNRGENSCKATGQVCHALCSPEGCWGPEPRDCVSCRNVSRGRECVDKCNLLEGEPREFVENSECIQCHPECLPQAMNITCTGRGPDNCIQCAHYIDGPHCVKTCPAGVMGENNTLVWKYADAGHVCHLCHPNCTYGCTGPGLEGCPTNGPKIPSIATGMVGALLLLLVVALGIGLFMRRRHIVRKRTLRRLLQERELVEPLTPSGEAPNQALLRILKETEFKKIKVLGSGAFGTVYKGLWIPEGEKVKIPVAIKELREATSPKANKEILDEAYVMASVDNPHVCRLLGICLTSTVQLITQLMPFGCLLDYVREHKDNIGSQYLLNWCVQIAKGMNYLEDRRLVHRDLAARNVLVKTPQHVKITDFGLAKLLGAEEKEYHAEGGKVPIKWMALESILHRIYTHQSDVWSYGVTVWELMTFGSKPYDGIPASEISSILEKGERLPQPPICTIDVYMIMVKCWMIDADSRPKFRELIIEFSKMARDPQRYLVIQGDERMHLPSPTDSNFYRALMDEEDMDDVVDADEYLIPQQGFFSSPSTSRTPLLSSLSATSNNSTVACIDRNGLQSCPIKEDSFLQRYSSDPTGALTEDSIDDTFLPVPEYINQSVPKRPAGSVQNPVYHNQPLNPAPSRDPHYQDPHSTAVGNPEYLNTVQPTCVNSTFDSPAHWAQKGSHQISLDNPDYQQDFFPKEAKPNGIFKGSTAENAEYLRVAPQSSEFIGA
# How it was run: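 HTRF KinEASE-TK kinase reactions ran 1 h at ambient temperature with three-fold serial compound dilutions, then were quenched with Sa-XL665 and TK-Ab-Cryptate. After 1 h more, 655/620 nm time-resolved fluorescence gave percent of control; a 4-parameter logistic fit defined IC50 at 50 POC.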
# Chain of ErbB2 V777L (P04626 23-1255 V777L): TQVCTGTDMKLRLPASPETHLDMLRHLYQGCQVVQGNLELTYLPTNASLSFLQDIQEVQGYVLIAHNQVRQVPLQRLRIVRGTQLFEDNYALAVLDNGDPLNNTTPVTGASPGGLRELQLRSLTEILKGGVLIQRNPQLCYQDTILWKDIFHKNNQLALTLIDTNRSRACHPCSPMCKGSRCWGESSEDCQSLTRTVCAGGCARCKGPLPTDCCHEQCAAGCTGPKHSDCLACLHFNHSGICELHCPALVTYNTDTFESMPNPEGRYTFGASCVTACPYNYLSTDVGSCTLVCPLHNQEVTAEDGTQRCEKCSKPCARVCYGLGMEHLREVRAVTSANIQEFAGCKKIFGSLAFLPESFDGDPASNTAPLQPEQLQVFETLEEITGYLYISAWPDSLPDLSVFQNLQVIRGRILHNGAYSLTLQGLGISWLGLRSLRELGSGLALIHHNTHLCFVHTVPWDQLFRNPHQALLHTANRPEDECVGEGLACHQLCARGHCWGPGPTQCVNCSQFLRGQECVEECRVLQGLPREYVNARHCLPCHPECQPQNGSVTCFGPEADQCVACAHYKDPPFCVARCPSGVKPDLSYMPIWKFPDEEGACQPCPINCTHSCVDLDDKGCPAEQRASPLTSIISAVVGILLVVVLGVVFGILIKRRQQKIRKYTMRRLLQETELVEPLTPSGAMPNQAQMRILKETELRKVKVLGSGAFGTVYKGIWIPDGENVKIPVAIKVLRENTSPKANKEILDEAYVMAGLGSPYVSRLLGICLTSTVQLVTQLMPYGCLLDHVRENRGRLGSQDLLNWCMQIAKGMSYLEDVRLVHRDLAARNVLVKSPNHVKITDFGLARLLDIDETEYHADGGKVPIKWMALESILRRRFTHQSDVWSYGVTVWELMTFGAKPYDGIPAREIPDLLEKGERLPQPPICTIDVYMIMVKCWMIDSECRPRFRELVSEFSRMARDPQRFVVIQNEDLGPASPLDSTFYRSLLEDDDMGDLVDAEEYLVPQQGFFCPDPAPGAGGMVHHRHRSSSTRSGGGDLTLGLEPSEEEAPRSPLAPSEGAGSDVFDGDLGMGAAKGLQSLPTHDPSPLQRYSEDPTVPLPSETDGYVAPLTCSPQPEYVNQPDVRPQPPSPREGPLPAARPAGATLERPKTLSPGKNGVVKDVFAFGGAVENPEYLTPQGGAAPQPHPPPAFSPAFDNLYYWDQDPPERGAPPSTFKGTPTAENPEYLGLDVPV
SMILES,IC50 [1],IC50 [2]
"C=CC(=O)NC1CC2(C1)CN(c1ncc3ncnc(Nc4ccc(Oc5ccc6c(c5)nnn6C)c(C)c4)c3n1)C2 [Compound 225, N-(2-(8-((3-methyl-4-((1-methyl-1H-benzo[d][1,2,3]triazol-5-yl)oxy)phenyl)amino)pyrimido[5,4-d]pyrimidin-2-yl)-2-azaspiro[3.3]heptan-6-yl)acrylamide]",100 to 500 nM,500 to 1000 nM
"C=CC(=O)N(C)C1C2CN(c3ncc4ncnc(Nc5ccc(Oc6ccc7c(c6)nnn7C)c(C)c5F)c4n3)CC21 (stereo not shown) [Compound 226, N-(3-(8-((2-fluoro-3-methyl-4-((1-methyl-1H-benzo[d][1,2,3]triazol-5-yl)oxy)phenyl)amino)pyrimido[5,4-d]pyrimidin-2-yl)-3-azabicyclo[3.1.0]hexan-6-yl)-N-methylacrylamide]",100 to 500 nM,100 to 500 nM
"C=CC(=O)N1CCN(c2ncc3ncnc(Nc4ccc(Oc5ccc6c(c5)nnn6C)c(C)c4)c3n2)CC[C@@H]1C [Compound 228, (S)-1-(7-methyl-4-(8-((3-methyl-4-((1-methyl-1H-benzo[d][1,2,3]triazol-5-yl)oxy)phenyl)amino)pyrimido[5,4-d]pyrimidin-2-yl)-1,4-diazepan-1-yl)prop-2-en-1-one]",100 to 500 nM,500 to 1000 nM
"C=C(F)C(=O)N1CCN(c2ncc3ncnc(Nc4ccc(Oc5ccc6c(c5)nnn6C)c(C)c4)c3n2)C[C@@H]1C(F)(F)F [Compound 231, (R)-2-fluoro-1l-(4-(8-((3-methyl-4-((1-methyl-1H-benzo[d][1,2,3]triazol-5-yl)oxy)phenyl)amino)pyrimido[5,4-d]pyrimidin-2-yl)-2-(trifluoromethyl)piperazin-1-yl)prop-2-en-1-one]",500 to 1000 nM,500 to 1000 nM
"C=CC(=O)N(C)C1CC2(C1)CN(c1ncc3ncnc(Nc4ccc(Oc5ccc6c(c5)nnn6C)c(C)c4)c3n1)C2 [Compound 232, N-methyl-N-(2-(8-((3-methyl-4-((1-methyl-H-benzo[d][1,2,3]triazol-5-yl)oxy)phenyl)amino)pyrimido[5,4-d]pyrimidin-2-yl)-2-azaspiro[3.3]heptan-6-yl)acrylamide]",500 to 1000 nM,≥ 1000 nM
"C=C1CCN([C@@H]2CCN(c3ncc4ncnc(Nc5ccc(Oc6ccn7ncnc7c6)c(C)c5)c4n3)C2)C1=O [Compound 238, (R)-1′-(8-((4-([1,2,4]triazolo[1,5-a]pyridin-7-yloxy)-3-methylphenyl)amino)pyrimido[5,4-d]pyrimidin-2-yl)-3-methylene-[1,3′-bipyrrolidin]-2-one]",100 to 500 nM,≥ 1000 nM
"C=C1CCN([C@H]2CCN(c3ncc4ncnc(Nc5ccc(Oc6ccn7ncnc7c6)c(C)c5)c4n3)C2)C1=O [Compound 239, (S)-1′-(8-((4-([1,2,4]triazolo[1,5-a]pyridin-7-yloxy)-3-methylphenyl)amino)pyrimido[5,4-d]pyrimidin-2-yl)-3-methylene-[1,3′-bipyrrolidin]-2-one]",50 to 100 nM,500 to 1000 nM
"C=C1CCN(C2CCN(c3ncc4ncnc(Nc5ccc(Oc6ccn7ncnc7c6)c(C)c5)c4n3)CC2)C1=O [Compound 240, 1-(1-(8-((4-([1,2,4]triazolo[1,5-a]pyridin-7-yloxy)-3-methylphenyl)amino)pyrimido[5,4-d]pyrimidin-2-yl)piperidin-4-yl)-3-methylenepyrrolidin-2-one]",100 to 500 nM,≥ 1000 nM
"C=CC(=O)N1CC2C(C1)N2c1ncc2ncnc(Nc3ccc(Oc4ccc5c(c4)nnn5C)c(C)c3)c2n1 (stereo not shown) [Compound 242, 1-(6-(8-((3-methyl-4-((1-methyl-1H-benzo[d][1,2,3]triazol-5-yl)oxy)phenyl)amino)pyrimido[5,4-d]pyrimidin-2-yl)-3,6-diazabicyclo[3.1.0]hexan-3-yl)prop-2-en-1-one]",500 to 1000 nM,100 to 500 nM
"C=CC(=O)N1C[C@H]2CN(c3ncc4ncnc(Nc5ccc(Oc6ccc7c(c6)nnn7C)c(C)c5)c4n3)C[C@H]21 [Compound 243, cis-1-((1r,5s)-3-(8-((3-methyl-4-((1-methyl-1H-benzo[d][1,2,3]triazol-5-yl)oxy)phenyl)amino)pyrimido[5,4-d]pyrimidin-2-yl)-3,6-diazabicyclo[3.2.0]heptan-6-yl)prop-2-en-1-one]",100 to 500 nM,100 to 500 nM
"C=C(F)C(=O)N1CCN(c2ccc3ncnc(Nc4ccc(Oc5ccc6c(c5)nnn6C)c(C)c4)c3n2)CC1 [Compound 245, 2-fluoro-1-(4-(4-((3-methyl-4-((1-methyl-1H-benzo[d][1,2,3]triazol-5-yl)oxy)phenyl)amino)pyrido[3,2-d]pyrimidin-6-yl)piperazin-1-yl)prop-2-en-1-one]",100 to 500 nM,500 to 1000 nM
"C=CC(=O)N1CCN(c2ccc3ncnc(Nc4ccc(Oc5ccc6c(c5)nnn6C)c(C)c4F)c3n2)C[C@H]1C [Compound 246, (R)-1-(4-(4-((2-fluoro-3-methyl-4-((1-methyl-1H-benzo[d][1,2,3]triazol-5-yl)oxy)phenyl)amino)pyrido[3,2-d]pyrimidin-6-yl)-2-methylpiperazin-1-yl)prop-2-en-1-one]",50 to 100 nM,100 to 500 nM

# Other lines, results leading:
IC50 [1],IC50 [2],SMILES
50 to 100 nM,500 to 1000 nM,"C=CC(=O)N1CCN(c2ccc3ncnc(Nc4ccc(Oc5cc6ncn(C)c6nc5C)c(C)c4)c3n2)C[C@H]1C [Compound 247, (R)-1-(4-(4-((4-((3,5-dimethyl-3H-imidazo[4,5-b]pyridin-6-yl)oxy)-3-methylphenyl)amino)pyrido[3,2-d]pyrimidin-6-yl)-2-methylpiperazin-1-yl)prop-2-en-1-one]"
100 to 500 nM,500 to 1000 nM,"C=CC(=O)N1CCN(c2ccc3ncnc(Nc4ccc(Oc5ccc6c(c5)nnn6C)c(C)c4)c3n2)C[C@@H]1C1CC1 [Compound 250, (S)-1-(2-cyclopropyl-4-(4-((3-methyl-4-((1-methyl-1H-benzo[d][1,2,3]triazol-5-yl)oxy)phenyl)amino)pyrido[3,2-d]pyrimidin-6-yl)piperazin-1-yl)prop-2-en-1-one]"
100 to 500 nM,100 to 500 nM,"C=CC(=O)N1CCN(c2ccc3ncnc(Nc4c(OC)cc(Oc5ccc6c(c5)nnn6C)c(C)c4F)c3n2)CC1 [Compound 251, 1-(4-(4-((2-fluoro-6-methoxy-3-methyl-4-((1-methyl-1H-benzo[d][1,2,3]triazol-5-yl)oxy)phenyl)amino)pyrido[3,2-d]pyrimidin-6-yl)piperazin-1-yl)prop-2-en-1-one]"
50 to 100 nM,100 to 500 nM,"C=CC(=O)N1CCN(c2ccc3ncnc(Nc4ccc(Oc5ccc6c(c5)ncn6C(F)F)c(C)c4F)c3n2)C[C@H]1C [Compound 253, (R)-1-(4-(4-((4-((1-(difluoromethyl)-1H-benzo[d]imidazol-5-yl)oxy)-2-fluoro-3-methylphenyl)amino)pyrido[3,2-d]pyrimidin-6-yl)-2-methylpiperazin-1-yl)prop-2-en-1-one]"
100 to 500 nM,100 to 500 nM,"C=CC(=O)N1CCN(c2ccc3ncnc(Nc4c(OC)cc(Oc5ccc6c(c5)nnn6C)c(C)c4F)c3n2)C[C@H]1C [Compound 256, (R)-1-(4-(4-((2-fluoro-6-methoxy-3-methyl-4-((1-methyl-1H-benzo[d][1,2,3]triazol-5-yl)oxy)phenyl)amino)pyrido[3,2-d]pyrimidin-6-yl)-2-methylpiperazin-1-yl)prop-2-en-1-one]"
100 to 500 nM,100 to 500 nM,"C=CC(=O)N1CCN(c2ccc3ncnc(Nc4ccc(Oc5ccc6c(c5)nnn6C)c(C)c4F)c3n2)C[C@H]1CC [Compound 258, (R)-1-(2-ethyl-4-(4-((2-fluoro-3-methyl-4-((1-methyl-1H-benzo[d][1,2,3]triazol-5-yl)oxy)phenyl)amino)pyrido[3,2-d]pyrimidin-6-yl)piperazin-1-yl)prop-2-en-1-one]"
500 to 1000 nM,≥ 1000 nM,"C=CC(=O)N1CCN(c2ccc3ncnc(Nc4ccc(Oc5ccc6c(c5)nnn6C)c(C)c4F)c3n2)C[C@H]1C(C)C [Compound 259, (R)-1-(4-(4-((2-fluoro-3-methyl-4-((1-methyl-1H-benzo[d][1,2,3]triazol-5-yl)oxy)phenyl)amino)pyrido[3,2-d]pyrimidin-6-yl)-2-isopropylpiperazin-1-yl)prop-2-en-1-one]"
100 to 500 nM,100 to 500 nM,"C=CC(=O)N[C@@H]1CCCN(c2ccc3ncnc(Nc4ccc(Oc5ccc6c(c5)nnn6C)c(C)c4F)c3n2)C1 [Compound 260, (R)-N-(1-(4-((2-fluoro-3-methyl-4-((1-methyl-1H-benzo[d][1,2,3]triazol-5-yl)oxy)phenyl)amino)pyrido[3,2-d]pyrimidin-6-yl)piperidin-3-yl)acrylamide]"
100 to 500 nM,< 50 nM,"C=CC(=O)N1CCN(c2ccc3ncnc(Nc4ccc(Oc5cnc6c(c5)ncn6C(F)F)c(C)c4F)c3n2)C[C@H]1C [Compound 261, (R)-1-(4-(4-((4-((3-(difluoromethyl)-3H-imidazo[4,5-b]pyridin-6-yl)oxy)-2-fluoro-3-methylphenyl)amino)pyrido[3,2-d]pyrimidin-6-yl)-2-methylpiperazin-1-yl)prop-2-en-1-one]"
500 to 1000 nM,500 to 1000 nM,"C=CC(=O)N1CCCN(c2ccc3ncnc(Nc4cc(C)c(Oc5ccc6c(c5)nnn6C)cc4OC)c3n2)CC1 [Compound 264, 1-(4-(4-((2-methoxy-5-methyl-4-((1-methyl-1H-benzo[d][1,2,3]triazol-5-yl)oxy)phenyl)amino)pyrido[3,2-d]pyrimidin-6-yl)-1,4-diazepan-1-yl)prop-2-en-1-one]"
100 to 500 nM,100 to 500 nM,"C=CC(=O)N1CC[C@H](N(C)c2ccc3ncnc(Nc4ccc(Oc5ccc6c(c5)nnn6C)c(C)c4)c3n2)[C@@H]1C [Compound 265, 1-((2S,3S)-2-methyl-3-(methyl(4-((3-methyl-4-((1-methyl-1H-benzo[d][1,2,3]triazol-5-yl)oxy)phenyl)amino)pyrido[3,2-d]pyrimidin-6-yl)amino)pyrrolidin-1-yl)prop-2-en-1-one]"
